pEC50: −log10 of the molar value.
Key:
HCMV strain AD169 [1] = test: HCMV primary assay (CPE), strain AD169, HFF cells; format: cell-based, Human Cytomegalovirus; conditions: Human betaherpesvirus 5, HCMV primary assay, virus strain AD169, HFF cells
Description: The antiviral activity of the compound against HCMV in the described Primary assay was measured by treating primary Human foreskin fibroblast (HFF) cells infected with HCMV with a range of compound concentrations—description of methods for this assay can be found in section 1.3.2.1. […] . Additional tested assay parameters in this Primary assay can be found in Table 3.2.1 and include EC90, S150, and S190 values—descriptions of those data points can be found in section 3.2.1.

[2] = Cytotoxicity concurrent with HCMV AD169 primary assay; format: cell-based, human; conditions: human, CC50
HCMV strain AD169 [3] = test: HCMV secondary assay (yield reduction), strain AD169, HFF cells; format: cell-based, Human Cytomegalovirus; conditions: Human betaherpesvirus 5, virus strain AD169, HFF cells
Description: (§1) Monolayers of HFF cells were prepared in 96-well plates and incubated at 37° C. for 1 d to allow the cells to reach confluency. Media was then aspirated from the wells and cells infected at a high MOI. At 1 h following infection, the inocula were removed and the monolayers rinsed with fresh media. […] Drug dilutions were added to the wells and the plates were incubated for various times, depending on the virus used and represents a single replication cycle for the virus. A duplicate set of dilutions were also performed but remained uninfected to serve as a cytotoxicity control and received equal compound exposure. Supernatants from each of the infected wells were subsequently titered using CTG in a TCID50 assay to quantify the progeny virus. For HCMV only, viral yield in the supernatants from the infected cells were titered using qPCR with HCMV primers [NT], and probe [NT].

[4] = Cytotoxicity concurrent with HCMV secondary assay; format: cell-based; conditions: human
Description: as §1

Murine CMV strain Smith [5] = test: Murine CMV primary assay, strain Smith, MEF cells; format: cell-based, Mouse Cytomegalovirus
Murine CMV strain Smith [6] = test: Murine CMV secondary assay, strain Smith, MEF cells; format: cell-based, Mouse Cytomegalovirus
Description: (§2) Compounds that were positive in the CPE assay were confirmed in a similar assay in 96-well plates according to established laboratory protocols with the compounds added 1 h post infection […]. Additionally, 12 1:3 dilutions were done instead of 6 1:5 dilutions for added accuracy. Genome copy number was determined by qPCR using primers 5′-[…]-3′, 5′ […]-3′, and probe 5′-[…]-3′.

MEF cells = test: Cytotoxicity concurrent with Murine CMV secondary assay; format: cell-based, mouse
Description: as §2

[7] = test system: HCMV strain GDGr K17 - resistant isolate; test: HCMV primary assay, resistant isolate GDGr K17, HFF cells; format: cell-based, Human Cytomegalovirus; conditions: Human betaherpesvirus 5, HFF
Description: (§3) Assays were performed in monolayers as described. […] Toxicity was measured using CTG as above. […] Toxicity was measured using CTG as above.

VZV strain Ellen = test: VZV primary assay, strain Ellen, HFF cells; format: cell-based, Varicella Zoster Virus; conditions: Human alphaherpesvirus 3, VZV primary assay, strain Ellen, cell line HFF; for pEC50: read-out: EC50; for EC90: read-out: EC90
Description: as §3
(§4) Monolayers of HFF cells were prepared in six-well plates and incubated at 37° C. for 2 d to allow the cells to reach confluency. Media was then aspirated from the wells and 0.2 mL of virus-containing solution was added to each of three wells to yield 20-30 plaques in each well. The virus was allowed to adsorb to the cells for 1 h and the plates were agitated every 15 minutes. Compounds were diluted in assay media consisting of MEM with Earl's salts supplemented with 2% FBS, glutamine, penicillin, and gentamycin. Diluted drug was added to duplicate wells and the plates were incubated for various times, depending on the virus used. For HSV-1 and -2, the monolayers were then stained with 1% crystal violet in 20% methanol and the unbound dye removed by washing with dH20. For all other assays, the cell monolayer was stained with 1% Neutral Red solution for 4-6 h then the stain was aspirated and the cells were washed with PBS.

HSV1 strain E-377 = test: HSV1 primary assay, strain E-377, HFF cells; format: cell-based, Herpes Simplex Virus 1; conditions: Human alphaherpesvirus 1, HSV1 primary assay, strain E-377, HFF cells; for pEC50: read-out: EC50
Description: as §3, §4

[8] = test system: HSV1 strain DM.2 - resistant isolate; test: HSV1 primary assay, resistant isolate DM.2, HFF cells; format: cell-based, Herpes Simplex Virus 1; conditions: Human alphaherpesvirus 1, HFF
Description: as §3, §4

HSV2 strain G = test: HSV2 primary assay, strain G, HFF cells; format: cell-based, herpes simplex virus 2; conditions: Human alphaherpesvirus 2, HSV2 primary assay, strain G, HFF cells; for pEC50: read-out: EC50
Description: as §3, §4

HFF cells = test: Cytotoxicity concurrent with HCMV AD169 primary assay; format: cell-based, human; conditions: human
[9] = Cytotoxicity concurrent with VZV Ellen primary assay; format: cell-based; conditions: human
Description: as §3

[10] = Cytotoxicity concurrent with HSV1 E-377 primary assay; format: cell-based; conditions: human
Description: as §3

[11] = Cytotoxicity concurrent with HSV2 primary assay; format: cell-based; conditions: human
Description: as §3

[12] = test system: Adenovirus Adenoid75 strain; test: Adenovirus primary assay, Adenoid75 strain, HFF cells; format: cell-based; conditions: unidentified adenovirus, Adenovirus primary assay, HFF cells, Adenoid75 strain
[13] = Cytotoxicity concurrent with Adenovirus primary assay; format: cell-based; conditions: human

Question: What does the source list for `Nc1nc(O)c2ncn(COC(CO)CO)c2n1` [Ganciclovir, ganciclovir, reference compound]?
Answer: pEC50 (HCMV strain AD169 [1]; read-out: EC50): 5.75; EC90 (HCMV strain AD169 [1]; read-out: EC90): 5.67 µM; CC50 [2]: 150 µM; EC90 (HCMV strain AD169 [3]): 3.88 µM; CC50 [4]: 20 µM; pEC50 (Murine CMV strain Smith [5]): 5.26; EC90 (Murine CMV strain Smith [5]): 24.9 µM; pEC50 (Murine CMV strain Smith [6]): 5.13; EC90 (Murine CMV strain Smith [6]): 26 µM; CC50 (MEF cells): 84.8 μ.M

Question: With `Nc1nc2c(ncn2COCCO)c(=O)[nH]1` [Acyclovir, reference compound] as the compound, how does the pEC50 [7] read?
Answer: 4.78

Question: And the pEC50 (VZV strain Ellen)?
Answer: 5.25

Question: And the EC90 (VZV strain Ellen)?
Answer: 69.4 µM

Question: What about the pEC50 (HSV1 strain E-377) of the same compound?
Answer: 5.59

Question: What about the pEC50 [8] of the same compound?
Answer: 3.82

Question: And the pEC50 (HSV2 strain G)?
Answer: 5.59

Question: For `NC(=O)CN1CCC(Nc2cc3c4ccc(F)cc4nn3cn2)CC1` [VKT-026], which CC50 (HFF cells) is on record?
Answer: 26.9 µM

Question: And the pEC50 [7]?
Answer: 6.06

Question: And the EC90 [7]?
Answer: 10 µM

Question: What about the pEC50 (Murine CMV strain Smith [6]) of the same compound?
Answer: 6.77

Question: What about the EC90 (Murine CMV strain Smith [6]) of the same compound?
Answer: 5.38 µM

Question: And the CC50 (MEF cells)?
Answer: 50 μ.M

Question: And the pEC50 (VZV strain Ellen)?
Answer: 5.00

Question: And the EC90 (VZV strain Ellen)?
Answer: 10 µM

Question: And the CC50 [9]?
Answer: 22 µM

Question: And the pEC50 (HSV1 strain E-377)?
Answer: 5.00

Question: What about the EC90 (HSV1 strain E-377; read-out: EC90) of the same compound?
Answer: 10 µM

Question: What about the CC50 [10] of the same compound?
Answer: 10 µM

Question: And the pEC50 (HSV2 strain G)?
Answer: 5.00

Question: And the EC90 (HSV2 strain G; read-out: EC90)?
Answer: 50 µM

Question: What about the CC50 [11] of the same compound?
Answer: 29.4 µM

Question: What about the pEC50 ([12]; read-out: EC50) of the same compound?
Answer: 5.11

Question: And the EC90 ([12]; read-out: EC90)?
Answer: 50 µM

Question: What about the CC50 [13] of the same compound?
Answer: 24.7 µM

From patent US20240309004A1, “SELECTIVE CYCLIN-DEPENDENT KINASE INHIBITORS AND METHODS OF THERAPEUTIC USE THEREOF” (ViroKyne Therapeutics, LLC, priority 2021, published 2024)
